Measured values: patent US20260209215A1, “GLYCINE DERIVATIVES WITH P2X4 RECEPTOR-BLOCKING ACTIVITY AS DIAGNOSTICS AND FOR THE TREATMENT OF PAIN, INFLAMMATION, CANCER, AND OTHER P2X4 RECEPTOR-RELATED DISEASES” (RHEINISCHE-FRIEDRICH-WILHELMS-UNIVERSITÄT BONN, priority 2022, published 2026)

target: T1, P2X4 receptor (Homo sapiens, UniProt Q99571); experiment: Measurement of Ca2+ influx in transfected 1321N1 astrocytoma cells (P2X4 inhibitory potency); format: cell-based; details: agonist-mediated Ca2+ influx, FLUO-4, 1321N1 astrocytoma cells; antagonists added 30 min before agonist
T1 construct: expressed in transfected cells; host or cells: 1321N1 astrocytoma cells, retroviral vector pQCXIN, G418 selection, monoclones
T1 sequence (Q99571 1-388): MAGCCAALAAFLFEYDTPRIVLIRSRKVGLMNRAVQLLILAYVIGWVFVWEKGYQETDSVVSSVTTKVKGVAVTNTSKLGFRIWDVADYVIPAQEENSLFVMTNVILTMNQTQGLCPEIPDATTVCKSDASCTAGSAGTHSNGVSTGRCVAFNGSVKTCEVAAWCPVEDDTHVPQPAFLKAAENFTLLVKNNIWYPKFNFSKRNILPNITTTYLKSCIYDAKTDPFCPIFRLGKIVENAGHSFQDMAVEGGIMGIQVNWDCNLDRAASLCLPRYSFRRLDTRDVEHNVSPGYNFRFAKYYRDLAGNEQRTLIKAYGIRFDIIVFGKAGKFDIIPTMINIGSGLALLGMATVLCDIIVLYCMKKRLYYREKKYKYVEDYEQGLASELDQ
Method in brief: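 Stable 1321N1 astrocytoma cells expressing human P2X4, loaded with FLUO-4 AM (2.4 μM) in HBSS/HEPES pH 7.3 for 1 h at 23 °C. Antagonists added 30 min before agonist; fluorescence at 520 nm recorded for 30 s. Compounds tested at 7–8 concentrations spanning three log units.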

**Q.** `CCc1noc(-c2ccc(OC)c(NCC(=O)c3cn(C)c4cc(OC)c(F)cc34)c2)n1` [Example 98, 2-((5-(3-ethyl-1,2,4-oxadiazol-5-yl)-2-methoxyphenyl)amino)-1-(5-fluoro-6-methoxy-1-methyl-1H-indol-3-yl) ethan-1-one] was tested. Which IC50 did it give?
**A.** Its IC50 is 0.1 to 19 nM.

**Q.** For `Cc1nsc(-c2ccc(C)c(NCC(=O)c3cn4c5c(cccc35)C(=O)NCC4)c2)n1` [Example 99, 7-((2-methyl-5-(3-methyl-1,2,4-thiadiazol-5-yl)phenyl)glycyl)-3,4-dihydro-[1,4]diazepino[6,7,1-hi] indol-1(2H)-one], which IC50 is on record?
**A.** Its IC50 is 20 to 39 nM.

**Q.** `Cc1nsc(-c2ccc(C)c(NCC(=O)c3c[nH]c4ncccc34)c2)n1` [Example 100, 2-((2-methyl-5-(3-methyl-1,2,4-thiadiazol-5-yl)phenyl)amino)-1-(1H-pyrrolo [2,3-b]pyridin-3-yl) ethan-1-one] was tested. Which IC50 did it give?
**A.** Its IC50 is 20 to 39 nM.

**Q.** For `COc1cc2[nH]cc(C(=O)CNc3cc(-c4nc(C)ns4)cc(F)c3OC)c2cc1F` [Example 101, 2-((3-fluoro-2-methoxy-5-(3-methyl-1,2,4-thiadiazol-5-yl)phenyl)amino)-1-(5-fluoro-6-methoxy-1H-indol-3-yl)ethan-1-one], which IC50 is on record?
**A.** Its IC50 is 20 to 39 nM.

**Q.** With `Cc1nsc(-c2ccc(C)c(NCC(=O)c3c[nH]c4ccccc34)c2)n1` [Example 102, 1-(1H-indol-3-yl)-2-((2-methyl-5-(3-methyl-1,2,4-thiadiazol-5-yl)phenyl)amino)ethan-1-one] as the compound, how does the IC50 read?
**A.** The IC50 was 20 to 39 nM.

**Q.** `Cc1nsc(-c2ccc(C)c(NCC(=O)c3cn4c5c(cccc35)CCC4)c2)n1` [Example 103, 1-(5,6-dihydro-4H-pyrrolo[3,2,1-ij]quinolin-1-yl)-2-((2-methyl-5-(3-methyl-1,2,4-thiadiazol-5-yl)phenyl)amino)ethan-1-one] was tested. Which IC50 did it give?
**A.** The IC50 was 20 to 39 nM.

**Q.** For `COc1ccc(-c2nc(C)ns2)cc1NCC(=O)c1c[nH]c2c3c(ccc12)CCC3` [Example 104, 2-((2-methoxy-5-(3-methyl-1,2,4-thiadiazol-5-yl)phenyl)amino)-1-(1,6,7,8-tetrahydrocyclopenta[g]indol-3-yl)ethan-1-one], which IC50 is on record?
**A.** The IC50 was 20 to 39 nM.

**Q.** How did the IC50 turn out when `Cc1nsc(-c2ccc(C)c(NCC(=O)c3cn4c5c(cccc35)OCC(C)(O)C4)c2)n1` (stereo not drawn) [Example 105, 1-(3-hydroxy-3-methyl-3,4-dihydro-2H-[1,4]oxazepino[2,3,4-hi]indol-7-yl)-2-((2-methyl-5-(3-methyl-1,2,4-thiadiazol-5-yl)phenyl)-amino)ethan-1-one] was run?
**A.** Its IC50 is 20 to 39 nM.

**Q.** `Cc1nc(-c2ccc(C)c(NCC(=O)c3c[nH]c4ccccc34)c2)no1` [Example 106, 1-(1H-indol-3-yl)-2-((2-methyl-5-(5-methyl-1,2,4-oxadiazol-3-yl)phenyl)amino)ethan-1-one] was tested. Which IC50 did it give?
**A.** Its IC50 is 40 to 69 nM.

**Q.** `CCc1noc(-c2cc(NCC(=O)c3c[nH]c4cc(OC)c(Br)cc34)c(OC)cc2Br)n1` [Example 108, 2-(4-bromo-5-(3-ethyl-1,2,4-oxadiazol-5-yl)-2-methoxyphenylamino)-1-(5-bromo-6-methoxy-1H-indol-3-yl) ethanone] was tested. Which IC50 did it give?
**A.** The IC50 was 70 to 99 nM.

**Q.** With `CCc1noc(-c2cc(NCC(=O)c3c[nH]c4cc(OC)ccc34)c(OC)cc2Br)n1` [Example 109, 2-((4-bromo-5-(3-ethyl-1,2,4-oxadiazol-5-yl)-2-methoxy-phenyl)amino)-1-(6-methoxy-1H-indol-3-yl)ethan-1-one] as the compound, how does the IC50 read?
**A.** The IC50 was 40 to 69 nM.

**Q.** For `COc1nccc2c(C(=O)CNc3cc(-c4nc(C)ns4)ccc3C)c[nH]c12` [Example 110, 1-(7-methoxy-1H-pyrrolo[2,3-c]pyridin-3-yl)-2-((2-methyl-5-(3-methyl-1,2,4-thiadiazol-5-yl)phenyl)amino) ethan-1-one], which IC50 is on record?
**A.** The IC50 was 20 to 39 nM.

**Q.** For `CCc1noc(-c2ccc(C)c(NCC(=O)c3cn(C)c4ccccc34)c2)n1` [Example 111, 2-((5-(3-ethyl-1,2,4-oxadiazol-5-yl)-2-methylphenyl)amino)-1-(1-methyl-1H-indol-3-yl)ethan-1-one], which IC50 is on record?
**A.** The IC50 was 40 to 69 nM.

**Q.** `Cc1nsc(-c2ccc(C)c(NCC(=O)c3c[nH]c4c(C(C)O)cccc34)c2)n1` (stereo not drawn) [Example 112, 1-(7-(1-hydroxyethyl)-1H-indol-3-yl)-2-((2-methyl-5-(3-methyl-1,2,4-thiadiazol-5-yl)phenyl)amino)ethan-1-one] was tested. Which IC50 did it give?
**A.** The IC50 was 0.1 to 19 nM.

**Q.** `Cc1ccc(-c2ccc(C(C)C)cn2)cc1NCC(=O)N1CCc2c(OCCOCCO)cccc21` [Example 113, 1-(4-(2-(2-hydroxyethoxy)ethoxy)indolin-1-yl)-2-((5-(5-isopropylpyridin-2-yl)-2-methylphenyl)amino) ethan-1-one] was tested. Which IC50 did it give?
**A.** The IC50 was 40 to 69 nM.

**Q.** For `Cc1ccc(-c2ccc(C3CC3)cn2)cc1NCC(=O)N1CCc2c(OCC(C)(C)O)cccc21` [Example 114, 2-((5-(5-cyclopropyl-pyridin-2-yl)-2-methyl-phenyl)amino)-1-(4-(2-hydroxy-2-methyl-propoxy)indolin-1-yl) ethan-1-one], which IC50 is on record?
**A.** The IC50 was 40 to 69 nM.

**Q.** For `Cc1ccc(-c2ccc(Cl)cn2)cc1NCC(=O)N1CCc2c(OCC(C)(C)O)cccc21` [Example 115, 2-((5-(5-chloropyridin-2-yl)-2-methylphenyl)amino)-1-(4-(2-hydroxy-2-methyl-propoxy)-indolin-1-yl)ethan-1-one], which IC50 is on record?
**A.** The IC50 was 40 to 69 nM.

**Q.** Which IC50 does the source give for `Cc1ccc(-c2ccc(C)c(NCC(=O)N3CCc4c(CO)cccc43)c2)nc1` [Example 116, 1-(4-(hydroxymethyl)indolin-1-yl)-2-((2-methyl-5-(5-methylpyridin-2-yl)phenyl)amino)ethan-1-one] here?
**A.** Its IC50 is 70 to 99 nM.

**Q.** With `Cc1ccc(-c2ccc(C)c(NCC(=O)N3CCc4c(OCC(C)(C)O)cccc43)c2)nc1` [Example 117, 1-(4-(2-hydroxy-2-methylpropoxy)indolin-1-yl)-2-((2-methyl-5-(5-methylpyridin-2-yl)phenyl)amino)ethan-1-one] as the compound, how does the IC50 read?
**A.** The IC50 was 40 to 69 nM.

**Q.** How did the IC50 turn out when `COc1ccc(-c2ccc(C)cn2)cc1NCC(=O)N1CCc2cc(F)c(F)cc21` [Example 118, 1-(5,6-difluoroindolin-1-yl)-2-((2-methoxy-5-(5-methylpyridin-2-yl)phenyl)amino)ethan-1-one] was run?
**A.** Its IC50 is 40 to 69 nM.

**Q.** How did the IC50 turn out when `COC(=O)c1cccc2c1CCN2C(=O)CNc1cc(-c2ccc(C)cn2)ccc1OC` [Example 119, methyl 1-((2-methoxy-5-(5-methylpyridin-2-yl)phenyl)glycyl) indoline-4-carboxylate] was run?
**A.** The IC50 was 70 to 99 nM.

**Q.** `COc1ccc(-c2ccc(C)cn2)cc1NCC(=O)N1CCc2c(OC)cccc21` [Example 120, 2-((2-methoxy-5-(5-methyl-pyridin-2-yl)phenyl)amino)-1-(4-methoxyindolin-1-yl) ethan-1-one] was tested. Which IC50 did it give?
**A.** The IC50 was 40 to 69 nM.

**Q.** `COc1ccc(-c2cc(C)c(C)cn2)cc1NCC(=O)N1CCc2c(O)cccc21` [Example 121, 2-((5-(4,5-dimethyl-pyridin-2-yl)-2-methoxyphenyl)amino)-1-(4-hydroxyindolin-1-yl) ethan-1-one] was tested. Which IC50 did it give?
**A.** Its IC50 is > 100 nM.

**Q.** How did the IC50 turn out when `O=C(CNc1cccc(-c2ccccn2)c1)c1c[nH]c2cc(F)c(F)cc12` [Example 122, 1-(5,6-difluoro-1H-indol-3-yl)-2-((3-(pyridin-2-yl)phenyl)amino)ethan-1-one] was run?
**A.** The IC50 was > 100 nM.
